The supplement of paper PMC10307832

Tests used:
Test in all cases: relative viability (nuclei count vs DMSO), 5 days (fraction); higher = more cells survive
4EGI-1 + Foretinib = compound: O=C(O)C(Cc1ccccc1[N+](=O)[O-])=NNc1nc(-c2ccc(Cl)c(Cl)c2)cs1 (mixture of isomers) [4EGI-1] + COc1cc2c(Oc3ccc(NC(=O)C4(C(=O)Nc5ccc(F)cc5)CC4)cc3F)ccnc2cc1OCCCN1CCOCC1 [Foretinib] (partner 0.25 µM)
Method in brief: (§1)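 Medians of duplicate plates are given as relative viability. That measure is the nuclei count in treated wells divided by the count in vehicle wells. Counts were taken on 4× images of lung cancer cell lines in 1536-well plates, 5 days after pin-tool dosing the day after seeding with one drug alone or a fixed anchor-drug dose plus five library-drug doses (not always all listed) in √10 steps.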

4EGI-1 + Pemetrexed = compound: O=C(O)C(Cc1ccccc1[N+](=O)[O-])=NNc1nc(-c2ccc(Cl)c(Cl)c2)cs1 (mixture of isomers) [4EGI-1] + Nc1nc2[nH]cc(CCc3ccc(C(=O)N[C@@H](CCC(=O)O)C(=O)O)cc3)c2c(=O)[nH]1 [Pemetrexed] (partner 0.2 µM)
Method in brief: as §1

XMD8-85 + Pemetrexed = compound: CN1CCN(CC1)C2=CC(=C(C=C2)NC3=NC=C4C(=N3)N(C5=CC=CC=C5C(=O)N4C)C)OC [XMD8-85] + Nc1nc2[nH]cc(CCc3ccc(C(=O)N[C@@H](CCC(=O)O)C(=O)O)cc3)c2c(=O)[nH]1 [Pemetrexed] (partner 0.2 µM)
Method in brief: as §1

4EGI-1 + Trametinib = compound: O=C(O)C(Cc1ccccc1[N+](=O)[O-])=NNc1nc(-c2ccc(Cl)c(Cl)c2)cs1 (mixture of isomers) [4EGI-1] + CC(=O)Nc1cccc(-n2c(=O)n(C3CC3)c(=O)c3c(Nc4ccc(I)cc4F)n(C)c(=O)c(C)c32)c1 [Trametinib] (partner 0.02 µM)
Method in brief: as §1

Row | Cell Line | relative viability (4EGI-1 + Foretinib; first compound 0.5 µM) | relative viability (4EGI-1 + Foretinib; first compound 1.581 µM) | relative viability (4EGI-1 + Foretinib; first compound 5 µM) | relative viability (4EGI-1 + Foretinib; first compound 15.81 µM) | relative viability (4EGI-1 + Foretinib; first compound 50 µM) | relative viability (4EGI-1 + Pemetrexed; first compound 0.5 µM) | relative viability (4EGI-1 + Pemetrexed; first compound 1.581 µM) | relative viability (4EGI-1 + Pemetrexed; first compound 5 µM) | relative viability (4EGI-1 + Pemetrexed; first compound 15.81 µM) | relative viability (4EGI-1 + Pemetrexed; first compound 50 µM) | relative viability (XMD8-85 + Pemetrexed; first compound 0.08 µM) | relative viability (XMD8-85 + Pemetrexed; first compound 0.253 µM) | relative viability (XMD8-85 + Pemetrexed; first compound 0.8 µM) | relative viability (XMD8-85 + Pemetrexed; first compound 2.53 µM) | relative viability (XMD8-85 + Pemetrexed; first compound 8 µM) | relative viability (4EGI-1 + Trametinib; first compound 0.5 µM) | relative viability (4EGI-1 + Trametinib; first compound 1.581 µM) | relative viability (4EGI-1 + Trametinib; first compound 5 µM) | relative viability (4EGI-1 + Trametinib; first compound 15.81 µM) | relative viability (4EGI-1 + Trametinib; first compound 50 µM)
1 | NCI-H1915 | 1.13 | 0.858 | 1.08 | 1.07 | 0.928 | 0.513 | 0.407 | 0.451 | 0.488 | 0.263 | 0.434 | 0.523 | 0.484 | 0.5 | 0.457 | 0.367 | 0.234 | 0.308 | 0.289 | 0.245
2 | NCI-H1944 | 0.894 |  | 0.974 | 0.782 | 0.655 | 0.683 |  | 0.668 | 0.586 | 0.331 | 0.517 | 0.72 | 0.638 | 0.615 | 0.639 | 0.481 |  | 0.354 | 0.314 | 0.334
3 | NCI-H1975 | 0.932 | 0.814 | 1.01 | 0.844 | 0.729 | 0.298 | 0.274 | 0.287 | 0.283 | 0.21 | 0.257 | 0.286 | 0.305 | 0.282 | 0.227 | 0.341 | 0.32 | 0.325 | 0.289 | 0.212
4 | NCI-H1993 | 0.812 | 0.7 | 0.708 | 0.684 | 0.614 | 0.529 | 0.569 | 0.541 | 0.518 | 0.481 | 0.604 | 0.572 | 0.681 | 0.739 | 0.563 | 0.654 | 0.49 | 0.504 | 0.607 | 0.432
5 | NCI-H2009 | 1.28 | 1.29 | 1.27 | 1.23 | 0.981 | 1.01 | 1 | 1.04 | 0.951 | 0.805 | 0.958 | 1.03 | 1.1 | 0.885 | 0.767 | 0.339 | 0.28 | 0.306 | 0.24 | 0.139
6 | NCI-H2023 | 0.88 |  | 0.772 | 0.45 | 0.149 | 0.263 |  | 0.223 | 0.164 | 0.101 | 0.189 | 0.223 | 0.326 | 0.255 | 0.165 | 0.865 |  | 0.593 | 0.214 | 0.0814
7 | NCI-H2085 | 0.826 | 1.02 | 1.07 | 0.814 | 0.541 | 0.979 | 0.954 | 0.915 | 0.646 | 0.621 | 0.889 | 0.826 | 0.849 | 0.811 | 0.713 | 0.553 | 0.594 | 0.53 | 0.355 | 0.364
8 | NCI-H2087 | 1.23 | 1.09 | 1.39 | 0.855 | 0.29 | 0.651 | 0.648 | 0.637 | 0.637 | 0.481 | 0.654 | 0.697 | 0.692 | 0.731 | 0.659 | 0.212 | 0.2 | 0.234 | 0.2 | 0.126
